This is an account of results in PubChem BioAssay AID1259407 (Chemical Carcinogenesis Research Information System (CCRIS), 2018).

This data set deals with CCRIS mutagenicity, Ames/micronucleus/aberration tests. In words: CCRIS mutagenicity studies.
Setting [1] is: Test System: AMES SALMONELLA TYPHIMURIUM, Strain/Indicator: TA98, Metabolic Activation: NONE, Method: PREINCUBATION
Where [2] appears, read: Test System: AMES SALMONELLA TYPHIMURIUM, Strain/Indicator: TA100, Metabolic Activation: NONE, Method: PREINCUBATION
Setting [3] is: Test System: AMES SALMONELLA TYPHIMURIUM, Strain/Indicator: TA1535, Metabolic Activation: NONE, Method: PREINCUBATION
The mark [4] stands for this setting: Test System: AMES SALMONELLA TYPHIMURIUM, Strain/Indicator: TA1537, Metabolic Activation: NONE, Method: PREINCUBATION
[5] abbreviates: Test System: AMES SALMONELLA TYPHIMURIUM, Strain/Indicator: TA98, Metabolic Activation: NONE, Method: STANDARD PLATE.
Where [6] appears, read: Test System: AMES SALMONELLA TYPHIMURIUM, Strain/Indicator: TA98, Metabolic Activation: RAT, LIVER, S-9, AROCLOR 1254, Method: STANDARD PLATE.
Where [7] appears, read: Test System: AMES SALMONELLA TYPHIMURIUM, Strain/Indicator: TA98, Metabolic Activation: RAT, LIVER, S-9, PHENOBARBITAL, Method: STANDARD PLATE.
[8] abbreviates: Test System: AMES SALMONELLA TYPHIMURIUM, Strain/Indicator: TA100, Metabolic Activation: RAT, LIVER, S-9, AROCLOR 1254, Method: STANDARD PLATE.
[9] abbreviates: Test System: AMES SALMONELLA TYPHIMURIUM, Strain/Indicator: TA102, Metabolic Activation: NONE, Method: STANDARD PLATE.
Setting [10] is: Test System: AMES SALMONELLA TYPHIMURIUM, Strain/Indicator: TA102, Metabolic Activation: RAT, LIVER, S-9, AROCLOR 1254, Method: STANDARD PLATE.
Where [11] appears, read: Test System: AMES SALMONELLA TYPHIMURIUM, Strain/Indicator: TA100, Metabolic Activation: NONE, Method: STANDARD PLATE.

Calls of active or inactive are those of the source. No rule for the calls is given here.

Take `Nc1ccc([N+](=O)[O-])c(N)c1`: the mutagenic call (Test System: AMES SALMONELLA TYPHIMURIUM, Strain/Indicator: TA97, Metabolic Activation: HAMSTER, LIVER, S-9, AROCLOR 1254 (10%), Method: PREINCUBATION) is “inactive; negative”; the mutagenic call (Test System: AMES SALMONELLA TYPHIMURIUM, Strain/Indicator: TA97, Metabolic Activation: NONE, Method: PREINCUBATION) was “inactive; negative”; the mutagenic call (Test System: AMES SALMONELLA TYPHIMURIUM, Strain/Indicator: TA97, Metabolic Activation: RAT, LIVER, S-9, AROCLOR 1254 (5, 10 OR 30%), Method: PREINCUBATION) was “inactive; negative”; the mutagenic call (Test System: AMES SALMONELLA TYPHIMURIUM, Strain/Indicator: TA98, Metabolic Activation: HAMSTER, LIVER, S-9, AROCLOR 1254 (10%), Method: PREINCUBATION) is “active; positive”; the mutagenic call under setting [1] was “active; positive”; the mutagenic call (Test System: AMES SALMONELLA TYPHIMURIUM, Strain/Indicator: TA98, Metabolic Activation: RAT, LIVER, S-9, AROCLOR 1254 (10%), Method: PREINCUBATION) was “active; positive”. Moreover, the mutagenic call reads like this: (Test System: AMES SALMONELLA TYPHIMURIUM, Strain/Indicator: TA100, Metabolic Activation: HAMSTER, LIVER, S-9, AROCLOR 1254 (10%), Method: PREINCUBATION) “inactive; negative”; under setting [2], “inactive; negative”; (Test System: AMES SALMONELLA TYPHIMURIUM, Strain/Indicator: TA100, Metabolic Activation: RAT, LIVER, S-9, AROCLOR 1254 (10%), Method: PREINCUBATION) “inactive; negative”; (Test System: AMES SALMONELLA TYPHIMURIUM, Strain/Indicator: TA1535, Metabolic Activation: HAMSTER, LIVER, S-9, AROCLOR 1254 (10%), Method: PREINCUBATION) “inactive; negative”; under setting [3], “inactive; negative”; (Test System: AMES SALMONELLA TYPHIMURIUM, Strain/Indicator: TA1535, Metabolic Activation: RAT, LIVER, S-9, AROCLOR 1254 (10%), Method: PREINCUBATION) “inactive; negative”. Also, the mutagenic call by setting is: (Test System: AMES SALMONELLA TYPHIMURIUM, Strain/Indicator: TA1537, Metabolic Activation: HAMSTER, LIVER, S-9, AROCLOR 1254 (10%), Method: PREINCUBATION) “active; positive”; under setting [4], “inactive; negative”; (Test System: AMES SALMONELLA TYPHIMURIUM, Strain/Indicator: TA1537, Metabolic Activation: RAT, LIVER, S-9, AROCLOR 1254 (10%), Method: PREINCUBATION) “inactive; negative”.
Regarding `O=C(O)/C(Cl)=C(/C(=O)O)C(Cl)Cl`, the mutagenic call is “inactive; negative” (Test System: AMES SALMONELLA TYPHIMURIUM, Strain/Indicator: TA97, Metabolic Activation: NONE, Method: STANDARD PLATE); “inactive; negative” (Test System: AMES SALMONELLA TYPHIMURIUM, Strain/Indicator: TA97, Metabolic Activation: RAT, LIVER, S-9, PHENOBARBITAL, Method: STANDARD PLATE); “inactive; negative” under setting [5]; “inactive; negative” under setting [6]; “inactive; negative” under setting [7]; “inactive; negative” under setting [8]. The mutagenic call reads like this: (Test System: AMES SALMONELLA TYPHIMURIUM, Strain/Indicator: TA100, Metabolic Activation: RAT, LIVER, S-9, PHENOBARBITAL, Method: STANDARD PLATE) “inactive; negative”; under setting [9], “inactive; negative”; under setting [10], “inactive; negative”.
For `CCCCN(C[C@@H](CO)Cc1ccccc1)N=O`, the mutagenic call under setting [2] is “inactive; negative” and the mutagenic call (Test System: AMES SALMONELLA TYPHIMURIUM, Strain/Indicator: TA100, Metabolic Activation: RAT, LIVER, S-9, PCB, Method: PREINCUBATION) is “active; positive”.
Consider `CC(C)(C)NC[C@H](O)COc1nsnc1N1CCOCC1`, for which the mutagenic call is “inactive; negative” under setting [5], “inactive; negative” under setting [6], “inactive; negative” under setting [11] and “inactive; negative” under setting [8].
For `N.N.O=C([O-])C1(C(=O)[O-])CCC1.[Pt+4]`, the mutagenic call under setting [1] is “inactive; negative”; the mutagenic call under setting [5] was “inactive; negative”; the mutagenic call under setting [6] was “inactive; negative”; the mutagenic call (Test System: AMES SALMONELLA TYPHIMURIUM, Strain/Indicator: TA98, Metabolic Activation: RAT, LIVER, S-9, PHENOBARBITAL AND 5,6-BENZOFLAVONE, Method: PREINCUBATION) was “inactive; negative”; the mutagenic call under setting [2] was “inactive; negative”; the mutagenic call under setting [11] was “inactive; negative”. Further, the mutagenic call runs as follows: under setting [8], “inactive; negative”; (Test System: AMES SALMONELLA TYPHIMURIUM, Strain/Indicator: TA100, Metabolic Activation: RAT, LIVER, S-9, PHENOBARBITAL AND 5,6-BENZOFLAVONE, Method: PREINCUBATION) “inactive; negative”; under setting [9], “active; positive”; under setting [10], “active; positive”; under setting [3], “inactive; negative”; (Test System: AMES SALMONELLA TYPHIMURIUM, Strain/Indicator: TA1535, Metabolic Activation: RAT, LIVER, S-9, PHENOBARBITAL AND 5,6-BENZOFLAVONE, Method: PREINCUBATION) “inactive; negative”. Moreover, the mutagenic call under setting [4] was “inactive; negative”; the mutagenic call (Test System: AMES SALMONELLA TYPHIMURIUM, Strain/Indicator: TA1537, Metabolic Activation: RAT, LIVER, S-9, PHENOBARBITAL AND 5,6-BENZOFLAVONE, Method: PREINCUBATION) was “inactive; negative”; the mutagenic call (Test System: CHINESE HAMSTER, Strain/Indicator: V-79/6-THIOGUANINE (HGPRT), Metabolic Activation: NONE, Method: STANDARD PLATE) was “active; positive”; the mutagenic call (Test System: E.COLI, Strain/Indicator: WP2 UVRA, Metabolic Activation: NONE, Method: PREINCUBATION) was “inactive; negative”; the mutagenic call (Test System: E.COLI, Strain/Indicator: WP2 UVRA, Metabolic Activation: RAT, LIVER, S-9, PHENOBARBITAL AND 5,6-BENZOFLAVONE, Method: PREINCUBATION) is “inactive; negative”.
With `Cl/C=C\CCl`, the mutagenic call by setting is: under setting [11], “active; positive”; under setting [8], “active; positive”; (Test System: AMES SALMONELLA TYPHIMURIUM, Strain/Indicator: TA1535, Metabolic Activation: NONE, Method: STANDARD PLATE) “active; positive”; (Test System: AMES SALMONELLA TYPHIMURIUM, Strain/Indicator: TA1535, Metabolic Activation: RAT, LIVER, S-9, AROCLOR 1254, Method: STANDARD PLATE) “active; positive”; (Test System: AMES SALMONELLA TYPHIMURIUM, Strain/Indicator: TA1978, Metabolic Activation: NONE, Method: STANDARD PLATE) “active; positive”; (Test System: AMES SALMONELLA TYPHIMURIUM, Strain/Indicator: TA1978, Metabolic Activation: RAT, LIVER, S-9, AROCLOR 1254, Method: STANDARD PLATE) “active; positive”.
With `COc1cc2c(c3oc(=O)c4c(c13)CC[C@@H]4O)[C@@H]1C=CO[C@@H]1O2`, the mutagenic call is “active; positive” under setting [7]; “active; positive” (Test System: AMES SALMONELLA TYPHIMURIUM, Strain/Indicator: TA98, Metabolic Activation: RAT, LIVER, S-9, Method: STANDARD PLATE); “inactive; negative” under setting [11]; “active; positive” under setting [8]; “active; positive” (Test System: UDS HUMAN FIBROBLASTS, Strain/Indicator: THY INCORP (NON-S-PHASE), Metabolic Activation: MOUSE, LIVER, S-9, Method: AUTORADIOGRAPHY); “active; positive” (Test System: UDS HUMAN FIBROBLASTS, Strain/Indicator: THY INCORP (NON-S-PHASE), Metabolic Activation: RAT, LIVER, S-9, Method: AUTORADIOGRAPHY).
